Reference: patent US10369138B2, “Monobactam organic compounds for the treatment of bacterial infections” (Novartis AG, priority 2014, dated 2019)
Converted amounts (≈) assume the structure as drawn. Read-outs that look alike come from different tables or passages of the source.

How the values were obtained:
E. coli containing KPC-2 = experiment: MIC by broth microdilution, E. coli containing KPC-2 (Ec KPC2 Iso); format: cell-based; conditions: Escherichia coli, read-out: Ec KPC2 Iso (MIC), E. coli containing KPC-2 (carbapenemase from Klebsiella pneumoniae)
In short: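 Host E. coli BW25113 pspB carrying multicopy pBAD18-kan plasmid with constitutive TEM-promoter KPC-2 expression (periplasmic signal sequence); broth microdilution per CLSI in cation-adjusted Mueller-Hinton broth, inoculum ~5×10^5 CFU/mL, compounds twofold serially diluted from DMSO masters (10% DMSO in dilution series added).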

E. coli strain 25922 = experiment: MIC by broth microdilution, E. coli strain 25922; format: cell-based
In short: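 CLSI broth microdilution in cation-adjusted Mueller-Hinton broth, inoculum about 5×10^5 CFU/mL, 10% DMSO from the diluted series, 20 h at 35-37° C. MIC is the lowest concentration preventing visible growth, read by eye and at 600 nm.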

[1] = Escherichia coli, 25922, E. coli strain 25922, read-out: Ec 25922 (MIC)

SMILES	MIC (E. coli containing KPC-2) [µg/mL]	MIC (E. coli strain 25922; [1]) [µg/mL]	MIC (E. coli strain 25922; Escherichia coli, 25922, read-out: Ec 25922 (MIC)) [µg/mL]
CC(C)(O/N=C(\C(=O)N[C@@H]1C(=O)N(S(=O)(=O)O)[C@@H]1Cn1ncc(CC#N)n1)c1csc(N)n1)C(=O)O [Example 33, 2-(((Z)-(1-(2-aminothiazol-4-yl)-2-(((2R,3S)-2-((4-(cyanomethyl)-2H-1,2,3-triazol-2-yl)methyl)-4-oxo-1-sulfoazetidin-3-yl)amino)-2-oxoethylidene)amino)oxy)-2-methylpropanoic acid]	2 (≈ 3.69 µM)	2 (≈ 3.69 µM)	
N=CNC[C@@H]1CN(C[C@@H]2[C@H](NC(=O)/C(=N\OC3(C(=O)O)CC3)c3csc(N)n3)C(=O)N2S(=O)(=O)O)C(=O)O1 [Example 104, 1-(((Z)-(1-(2-aminothiazol-4-yl)-2-(((2R,3S)-2-(((R)-5-(formimidamidomethyl)-2-oxooxazolidin-3-yl)methyl)-4-oxo-1-sulfoazetidin-3-yl)amino)-2-oxoethylidene)amino)oxy)cyclopropanecarboxylic acid]	> 64	> 64	
CC(C)(O/N=C(\C(=O)N[C@@H]1C(=O)N(S(=O)(=O)O)[C@@H]1Cn1cc(CCN)nn1)c1csc(N)n1)C(=O)O [Example 41, 2-(((Z)-(2-(((2R,3S)-2-((4-(2-aminoethyl)-1H-1,2,3-triazol-1-yl)methyl)-4-oxo-1-sulfoazetidin-3-yl)amino)-1-(2-aminothiazol-4-yl)-2-oxoethylidene)amino)oxy)-2-methylpropanoic acid]	2 (≈ 3.67 µM)	1 (≈ 1.83 µM)	
CC(C)(O/N=C(\C(=O)N[C@@H]1C(=O)N(S(=O)(=O)O)[C@@H]1Cn1cc(CNC(=N)N)nn1)c1csc(N)n1)C(=O)O [Example 45, 2-(((Z)-(1-(2-aminothiazol-4-yl)-2-(((2R,3S)-2-((4-(guanidinomethyl)-1H-1,2,3-triazol-1-yl)methyl)-4-oxo-1-sulfoazetidin-3-yl)amino)-2-oxoethylidene)amino)oxy)-2-methylpropanoic acid]	0.5 (≈ 0.872 µM)		0.5 (≈ 0.872 µM)
Nc1nc(/C(=N/OC2(C(=O)O)CC2)C(=O)N[C@@H]2C(=O)N(S(=O)(=O)O)[C@@H]2CN2C(=O)COC2=O)cs1 [Example 95, 1-(((Z)-(1-(2-aminothiazol-4-yl)-2-(((2R,3S)-2-((2,4-dioxooxazolidin-3-yl)methyl)-4-oxo-1-sulfoazetidin-3-yl)amino)-2-oxoethylidene)amino)oxy)cyclopropanecarboxylic acid]	0.125 (≈ 0.235 µM)	0.25 (≈ 0.47 µM)	
CN(Cc1cnn(C[C@@H]2[C@H](NC(=O)/C(=N\OC3(C(=O)O)CC3)c3csc(N)n3)C(=O)N2S(=O)(=O)O)n1)C(=N)NCCCN [Example 148, 1-(((Z)-(2-(((2R,3S)-2-((4-((3-(3-aminopropyl)-1-methylguanidino)methyl)-2H-1,2,3-triazol-2-yl)methyl)-4-oxo-1-sulfoazetidin-3-yl)amino)-1-(2-aminothiazol-4-yl)-2-oxoethylidene)amino)oxy)cyclopropanecarboxylic acid]	1 (≈ 1.56 µM)	1 (≈ 1.56 µM)	
NCCCNC(=O)NCc1cnn(C[C@@H]2[C@H](NC(=O)/C(=N\OC3(C(=O)O)CC3)c3csc(N)n3)C(=O)N2S(=O)(=O)O)n1 [Example 136, 1-(((Z)-(2-(((2R,3S)-2-((4-((3-(3-aminopropyl)ureido)methyl)-2H-1,2,3-triazol-2-yl)methyl)-4-oxo-1-sulfoazetidin-3-yl)amino)-1-(2-aminothiazol-4-yl)-2-oxoethylidene)amino)oxy)cyclopropanecarboxylic acid]	0.5 (≈ 0.794 µM)	0.5 (≈ 0.794 µM)	
NCCS(=O)(=O)Cc1cnn(C[C@@H]2[C@H](NC(=O)/C(=N\OC3(C(=O)O)CC3)c3csc(N)n3)C(=O)N2S(=O)(=O)O)n1 [Example 152, 1-(((Z)-(2-(((2R,3S)-2-((4-(((2-aminoethyl)sulfonyl)methyl)-2H-1,2,3-triazol-2-yl)methyl)-4-oxo-1-sulfoazetidin-3-yl)amino)-1-(2-aminothiazol-4-yl)-2-oxoethylidene)amino)oxy)cyclopropanecarboxylic acid]	0.5 (≈ 0.804 µM)	0.5 (≈ 0.804 µM)	
N=C(NC1CCNCC1)c1ccc(OC[C@H](O/N=C(\C(=O)N[C@@H]2C(=O)N(S(=O)(=O)O)[C@@H]2Cn2cncn2)c2nsc(N)n2)C(=O)O)cc1 [Example 75, (S)-2-(((Z)-(2-(((2R,3S)-2-((1H-1,2,4-triazol-1-yl)methyl)-4-oxo-1-sulfoazetidin-3-yl)amino)-1-(5-amino-1,2,4-thiadiazol-3-yl)-2-oxoethylidene)amino)oxy)-3-(4-(N-(piperidin-4-yl)carbamimidoyl)phenoxy)propanoic acid]	0.5 (≈ 0.707 µM)	0.5 (≈ 0.707 µM)	
Cn1cnn(C[C@@H]2[C@H](NC(=O)/C(=N\OC(C)(C)C(=O)O)c3csc(N)n3)C(=O)N2S(=O)(=O)O)c1=O [Example 98, 2-(((Z)-(1-(2-aminothiazol-4-yl)-2-(((2R,3S)-2-((4-methyl-5-oxo-4,5-dihydro-1H-1,2,4-triazol-1-yl)methyl)-4-oxo-1-sulfoazetidin-3-yl)amino)-2-oxoethylidene)amino)oxy)-2-methylpropanoic acid]	0.5 (≈ 0.939 µM)	2 (≈ 3.76 µM)	
CC(C)(O/N=C(\C(=O)N[C@@H]1C(=O)N(S(=O)(=O)O)[C@@H]1Cn1ccnn1)c1csc(N)n1)C(=O)O [Example 50, 2-(((Z)-(2-(((2R,3S)-2-((1H-1,2,3-triazol-1-yl)methyl)-4-oxo-1-sulfoazetidin-3-yl)amino)-1-(2-aminothiazol-4-yl)-2-oxoethylidene)amino)oxy)-2-methylpropanoic acid]	2.8 (≈ 5.57 µM)	2 (≈ 3.98 µM)	
CC(C)(O/N=C(\C(=O)N[C@@H]1C(=O)N(S(=O)(=O)O)[C@@H]1CN1CCN/C1=N\C#N)c1csc(N)n1)C(=O)O [Example 40, 2-(((Z)-(1-(2-aminothiazol-4-yl)-2-(((2R,3S)-2-(((E)-2-(cyanoimino)imidazolidin-1-yl)methyl)-4-oxo-1-sulfoazetidin-3-yl)amino)-2-oxoethylidene)amino)oxy)-2-methylpropanoic acid]	2 (≈ 3.68 µM)	2 (≈ 3.68 µM)	
CC(C)(O/N=C(\C(=O)N[C@@H]1C(=O)N(S(=O)(=O)O)[C@@H]1Cn1cnc(C(N)=O)n1)c1csc(N)n1)C(=O)O [Example 74, 2-(((Z)-(1-(2-aminothiazol-4-yl)-2-(((2R,3S)-2-((3-carbamoyl-1H-1,2,4-triazol-1-yl)methyl)-4-oxo-1-sulfoazetidin-3-yl)amino)-2-oxoethylidene)amino)oxy)-2-methylpropanoic acid]	32 (≈ 58.7 µM)	8 (≈ 14.7 µM)	
CC(C)(O/N=C(\C(=O)N[C@@H]1C(=O)N(S(=O)(=O)O)[C@@H]1CN1C[C@@H](CN)OC1=O)c1csc(N)n1)C(=O)O [Example 57, 2-(((Z)-(2-(((2R,3S)-2-(((R)-5-(aminomethyl)-2-oxooxazolidin-3-yl)methyl)-4-oxo-1-sulfoazetidin-3-yl)amino)-1-(2-aminothiazol-4-yl)-2-oxoethylidene)amino)oxy)-2-methylpropanoic acid]	1 (≈ 1.82 µM)	0.5 (≈ 0.91 µM)	
Cc1nn(C[C@@H]2[C@H](NC(=O)/C(=N\OC3(C(=O)O)CC3)c3csc(N)n3)C(=O)N2S(=O)(=O)O)nc1CN [Example 143, 1-(((Z)-(2-(((2R,3S)-2-((4-(aminomethyl)-5-methyl-2H-1,2,3-triazol-2-yl)methyl)-4-oxo-1-sulfoazetidin-3-yl)amino)-1-(2-aminothiazol-4-yl)-2-oxoethylidene)amino)oxy)cyclopropanecarboxylic acid]	0.25 (≈ 0.46 µM)	0.5 (≈ 0.92 µM)	
N=C(NC1CCNCC1)c1ccc(OC[C@H](O/N=C(\C(=O)N[C@@H]2C(=O)N(S(=O)(=O)O)[C@@H]2Cn2cncn2)c2csc(N)n2)C(=O)O)cn1 [Example 79, (S)-2-(((Z)-(2-(((2R,3S)-2-((1H-1,2,4-triazol-1-yl)methyl)-4-oxo-1-sulfoazetidin-3-yl)amino)-1-(2-aminothiazol-4-yl)-2-oxoethylidene)amino)oxy)-3-((6-(N-(piperidin-4-yl)carbamimidoyl)pyridin-3-yl)oxy)propanoic acid]	0.25 (≈ 0.354 µM)	0.25 (≈ 0.354 µM)	
NCCNC(=O)NCc1cnn(C[C@@H]2[C@H](NC(=O)/C(=N\OC3(C(=O)O)CC3)c3csc(N)n3)C(=O)N2S(=O)(=O)O)n1 [Example 135, 1-(((Z)-(2-(((2R,3S)-2-((4-((3-(2-aminoethyl)ureido)methyl)-2H-1,2,3-triazol-2-yl)methyl)-4-oxo-1-sulfoazetidin-3-yl)amino)-1-(2-aminothiazol-4-yl)-2-oxoethylidene)amino)oxy)cyclopropanecarboxylic acid]	0.5 (≈ 0.812 µM)	0.5 (≈ 0.812 µM)	
N=C(NCCCN)NCc1cn(C[C@@H]2[C@H](NC(=O)/C(=N\OC3(C(=O)O)CC3)c3csc(N)n3)C(=O)N2S(=O)(=O)O)nn1 [Example 120, 1-(((Z)-(2-(((2R,3S)-2-((4-((3-(3-aminopropyl)guanidino)methyl)-1H-1,2,3-triazol-1-yl)methyl)-4-oxo-1-sulfoazetidin-3-yl)amino)-1-(2-aminothiazol-4-yl)-2-oxoethylidene)amino)oxy)cyclopropanecarboxylic acid]	0.5 (≈ 0.795 µM)	0.25 (≈ 0.398 µM)	
CC(C)(O/N=C(\C(=O)N[C@@H]1C(=O)N(S(=O)(=O)O)[C@@H]1Cn1nccn1)c1csc(N)n1)C(=O)O [Example 54, 2-(((Z)-(2-(((2R,3S)-2-((2H-1,2,3-triazol-2-yl)methyl)-4-oxo-1-sulfoazetidin-3-yl)amino)-1-(2-aminothiazol-4-yl)-2-oxoethylidene)amino)oxy)-2-methylpropanoic acid]	1 (≈ 1.99 µM)	2 (≈ 3.98 µM)	
